What was measured:
T-cell = T-cell count in spleen, spontaneous rosette formation with sheep erythrocytes (E-FRC); type: in vivo, (CBA×C57BL)F1 mice
Protocol: Females and male (CBA×C57BL)F1 mice, aged about 2.5 months weighing about 20 g, were irradiated with gamma-rays using a "Luch-1" apparatus. Immunological activity was assessed according to Jerne (Antibody Forming Cells count--AFC). T-cell count in spleen was determined by the method of spontaneous rosette formation with sheep erythrocytes (E-FRC). The peptide was injected intramuscularly.
Mice were irradiated in a dose of 2 Gy, the peptide was injected in the dose of 10 μg/kg according to the following scheme (to determine T-cell count by the method of spontaneous rosette formation): 1 time--an hour after the irradiation; 2 times--an hour, and a day after irradiation; 3 times--an hour, a day, and two days after the irradiation; 4 times--an hour, a day, two days and three days after the irradiation. The intact mice recieved the peptide 3 or 4 times. The control group (2 Gy) recieved injections of physiological solution according to the same schedule. On completion of the treatment course, 10 mice from each group were immunized with sheep erythrocytes (SE) and 4-5 days later AFC counts were determined in their spleens. The rest of the mice were used to find T-cell count by the method of spontaneous rosette formation. The state of the organs of immune system (spleen and thymus) in mice with radiation immunodeficiency against the background of H-Ile-Glu-Trp-OH treatment was also listed by nucleated cell counts in thymus and spleen per mg of organ weight. AFC/mg Spleen weight is presented as an average of two experiments.

CFU-S [1] = test: Reconstitution of CFU-S and nucleated cells in irradiated mice (4 Gy), i.v. versus i.m.; type: in vivo
Protocol: A further study of the effect of the peptide, using different methods of administration, on the dynamics of reconstitution of CFU-S, Nucleated blood Cells (NC) in the femoral bone marrow and peritheric blood (mm) of irradiated mice (4 Gy) was conducted.
Donor mice were irradiated with γ-rays in the dose of 4 Gy. Then they received the petide i.v. or i.m. 1, 2, 3, or 4 times, once a day, starting from the 1 first hour of the 3rd day after the irradiation (10 μg/kg per injection). […] At different intervals after the irradiation 10 mice were taken from each group to determine CFU-S in the bone marrow. The mice were killed, cell suspensions were prepared from the bone marrow and injected to lethally irradiated recipients. NC were counted in the femoral bone marrow and peritheric blood, and the lymphocyte percentage was found.

CFU-S [2] = test: Regeneration of the CFU-S population in bone marrow of irradiated mice (4 Gy); type: in vivo
From the text: a) Scheme 1: mice received the peptide immediately after irradiation, daily. The mice were divided into groups: a control group--irradiated mice (4 Gy), and test groups--irradiated mice (4 Gy) received the peptide 1, 2, 3, and 4 times daily. Blood samples were taken four hours after the last peptide injection and on the 7th, 10th, and 16th day after the irradiation. Determined were total count of nucleated blood cells (NC) and lymphocyte percentage of them; nucleated cells and the CFU-S population in femoral bone marrow were counted on the 4th, 8th, and the 14th day.
From each group at least five mice were killed, their bone marrow was taken out and used to prepare the cell suspension, which was injected to lethally irradiated mice. After 9 days, CFU-S was counted in irradiated (4 Gy) donors receiving the peptide by counting the colonies grown on spleen. It was noted that with intramuscular administration of the peptide the CFU-S count in irradiated mice bone marrow was steadily growing starting from the 4th day, leaving the control CFU-S far behind.
b) According to scheme 2, the peptide injections were made starting from the 3rd day after the irradiation, at the same time of maximum depletion of the pool of mature nucleated cells and the bone marrow. The groups of mice were formed in the same way as in the previous scheme. Blood samples were taken 4 hours after the last injection i.e. on day 6, as well as on days 11, 14, 18, 21. Tables 9 and 10 present the data on karyocyte and lymphocyte counts in blood (per 1 mm^3) of mice treated according to scheme 2.

[3] = Clinical study: tolerance, biochemical indices, humoral status; type: in vivo, patients
From the text: The clinical study of H-Ile-Glu-Trp-OH was continued in groups of patients with pronounced secondary pathological changes in their immune system. The primary task of the first stage of the investigation was to observe the preparation tolerance, to reveal toxic, allergic and other reactions, hemogram dynamics and biochemical indices. Further investigation, along with further monitoring of the major clinical and laboratory parameters, included evaluation of the immunological status of a patient before and after the immunopeptide treatment.
Before instituting the treatment, examination was carried out including case history, clinical, laboratory and instrumental investigations. Necessary morphological investigations were performed to verify the diagnosis. There were also the results of hemogram dynamics before and after each treatment course of H-Ile-Glu-Trp-OH. After these courses the biochemical indices and urine tests were examined again. X-ray, ultrasonic and morphological examinations were repeated on indication.
Humoral immunity was also investigated: the content of different types of immunoglobulins, protein fractions, antibodies to thyroid, and the Coombs test (the latter was performed in the case of haemolytic anaemia).
One ml daily, intranasally, once or twice in divided doses, for 5 days. The course was repeated after a 3-week interval. To those patients who received a cytostatic mono- or polychemotherapy, H-Ile-Glu-Trp-OH was administered from the first day of the break in the cytostatic treatment.

[4] = Acute toxicity in guinea pigs; type: in vivo; settings: 20 guinea pigs
Protocol: To establish the safety of use of the peptides, toxicity tests were performed. Toxicity tests where performed in accordance Pharmacological Committee Russian Federation (RF) "guidelines for the pre-clinical study of general toxic activity of new pharmacological compounds". M., 1985.
Acute toxicity was studied in 20 guinea pigs and 6 dogs. […] The drug has a wide therapeutic range.

[5] = Chronic toxicity, general state and pathomorphologic investigation; type: in vivo
From the text: The general state of the animals, behaviour, motor function, cardio-vascular, respiratory activity, liver and kidney functions were within the range of physiologic fluctuations.

[6] = Effect on cardio-vascular and respiratory systems, guinea pigs; type: in vivo
Protocol: The effects of H-Ile-Glu-Trp-OH on ECG and arterial pressure were studied in guinea pigs and cats.
The test was conducted in 20 guinea pigs.

H-Ile-Glu-Trp-OH
T-Cell Count, column 1 (T-cell; 2 Gy, 1 Injection): 34.5 ± 1.7 10^3 /mg Spleen | T-Cell Count, column 1 (T-cell; 2 Gy, 2 Injection): 35.6 ± 1.8 10^3 /mg Spleen | T-Cell Count, column 1 (T-cell; 2 Gy, 3 Injection): 45.3 ± 3.4 10^3 /mg Spleen | T-Cell Count, column 2 (T-cell; 2 Gy, 3 Injection): 23.2 ± 3.7 10^3 /mg Spleen | T-Cell Count, column 1 (T-cell; 2 Gy, 4 Injection): 48.4 ± 2.5 10^3 /mg Spleen | T-Cell Count, column 2 (T-cell; 2 Gy, 4 Injection): 13.0 ± 0.8 10^3 /mg Spleen | T-Cell Count, column 2 (T-cell; intact mice, 3 Injections): 12.7 ± 1.5 10^3 /mg Spleen | T-Cell Count, column 2 (T-cell; intact mice, 4 Injections): 18.7 ± 5.8 10^3 /mg Spleen | NC content in the bone marrow (CFU-S [1]; IM 10 μg/kg): no effect | reconstitution of the CFU-S pool (CFU-S [1]; IM 10 μg/kg (especially 1, 2, 3 times)): positively influenced the reconstitution of the CFU-S pool earlier, beginning from day 8 | reconstitution of the CFU-S pool (CFU-S [1]; i.v. 10 μg/kg 1, 3, or 4 times): helped better reconstitution of the CFU-S pool by day 14 only | cellular composition of bone marrow (CFU-S [2]; scheme 1, i.m.): did not affect | regeneration of the CFU-S population (CFU-S [2]; scheme 1, i.m. (FIG. 1)): markedly stimulated regeneration of the CFU-S population | CFU-S (absolute) in femoral bone marrow (CFU-S [2]; scheme 2, 1 Time, Day 7): 459 ± 26 | CFU-S (absolute) in femoral bone marrow (CFU-S [2]; scheme 2, 1 Time, Day 11): 858 ± 67 | CFU-S (absolute) in femoral bone marrow (CFU-S [2]; scheme 2, 1 Time, Day 14): 1197 ± 75 | CFU-S (absolute) in femoral bone marrow (CFU-S [2]; scheme 2, 2 Time, Day 7): 298 ± 27 | CFU-S (absolute) in femoral bone marrow (CFU-S [2]; scheme 2, 2 Time, Day 11): 846 ± 44 | CFU-S (absolute) in femoral bone marrow (CFU-S [2]; scheme 2, 2 Time, Day 14): 902 ± 56 | CFU-S (absolute) in femoral bone marrow (CFU-S [2]; scheme 2, 3 Time, Day 7): 305 ± 33 | CFU-S (absolute) in femoral bone marrow (CFU-S [2]; scheme 2, 3 Time, Day 11): 1077 ± 56 | CFU-S (absolute) in femoral bone marrow (CFU-S [2]; scheme 2, 3 Time, Day 14): 1166 ± 68 | CFU-S (absolute) in femoral bone marrow (CFU-S [2]; scheme 2, 4 Time, Day 7): 431 ± 48 | CFU-S (absolute) in femoral bone marrow (CFU-S [2]; scheme 2, 4 Time, Day 11): 1147 ± 55 | CFU-S (absolute) in femoral bone marrow (CFU-S [2]; scheme 2, 4 Time, Day 14): 1434 ± 89 | protein fractions and immunoglobulins in patients' sera ([3]; 1-1.5 months after the treatment): No dynamics of these indices was found | dynamics of biochemical indices ([3]; before and after 1-3 treatment courses): revealed no changes | AP dynamics and ECG ([3]; human, in vivo): failed to reveal any changes | adverse reactions ([3]; prolonged administration (5-6 courses), intranasally): no toxic reactions | acute toxicity [4]: No toxic effects were observed | pathomorphologic investigation (with histologic investigation of organs) ([5]; chronic toxicity): failed to find any pathologic processes | side effects ([5]; doses 10-100 times as large as the therapeutic ones): no side effects were observed | ECG readings and arterial pressure [6]: No significant difference from control
